# In paper PMC9295786, “Discovery of potent BET bromodomain 1 stereoselective inhibitors using DNA-encoded chemical library selections” (Proceedings of the National Academy of Sciences of the …, 2022):
# Values joined by “and” are separate entries in the source; they are usually repeats but may differ in a detail not shown here. Equal entries are not always repeated. Where two headings read alike, the source gives them in different places.
# What was measured:
# BRDT-BD2 = molecular target: T1, BRDT-BD2 (Homo sapiens, UniProt Q58F21); test: AlphaScreen competition assay with biotinylated JQ1; format: binding; details: read-out: BRDT-BD2 IC50
# T1 construct: two similar tandem bromodomains (BD1 and BD2); made in house; host or cells: bacteria (pET15b or pET28b vector)
# BRD4-BD2 = molecular target: T2, BRD4-BD2 (Homo sapiens, UniProt O60885); test: as above; format: binding; details: read-out: BRD4-BD2 IC50
# T2 construct: two similar tandem bromodomains (BD1 and BD2); made in house; host or cells: bacteria (pET15b or pET28b vector)
# BRD4-BD1 = BRD4-BD1 (Homo sapiens, UniProt O60885); test: as above; format: binding; parameters: the bromodomain 1 (BD1) of BRD4; made in house; host or cells: bacteria (pET15b or pET28b vector); details: for BRD4-BD1 vs. BRD4-BD2 fold (BRD4-BD1 selectivity): ratio of AlphaScreen IC50 values, NE = not efficient; for IC50: read-out: BRD4-BD1 IC50
# BRDT-BD1 = BRDT-BD1 (Homo sapiens, UniProt Q58F21); test: as above; format: binding; parameters: the first bromodomain of BRDT (BRDT-BD1); made in house; host or cells: bacteria (pET15b or pET28b vector); details: for BRDT-BD1 vs. BRDT-BD2 fold (BRDT-BD1 selectivity): ratio of AlphaScreen IC50 values, NE = not efficient
# MV4;11 cells = test: Cell viability by CellTiterGlo; format: cell-based; details: Table S6, NE = not efficient, read-out: MV4-11 EC50 (viability)
# [1] = AlphaScreen, biotinylated JQ1 10 nM, His-bromodomain 10 nM, NE = not efficient
# [2] = AlphaScreen, biotinylated JQ1 10 nM, His-bromodomain 10 nM
SMILES,IC50 (BRDT-BD2) [nM],IC50 (BRD4-BD2) [nM],BRD4-BD1 vs. BRD4-BD2 fold (BRD4-BD1 selectivity) (BRD4-BD1),IC50 (BRD4-BD1) [nM],IC50 (BRDT-BD1) [nM],BRDT-BD1 vs. BRDT-BD2 fold (BRDT-BD1 selectivity) (BRDT-BD1),IC50 (BRDT-BD2; [1]) [nM],IC50 (BRD4-BD1; [2]) [nM],IC50 (BRDT-BD1; [2]) [nM],IC50 (BRD4-BD2; [1]) [nM],fold loss of selectivity on BRDT-BD1 (BRDT-BD1; AlphaScreen) [fold],"EC50 (MV4;11 cells; Homo sapiens, MV4-11) [nM]",EC50 (MV4;11 cells) [nM],fold loss of selectivity over BRD4-BD2 (BRD4-BD1; AlphaScreen) [fold]
CNC(=O)C(CC1CCN(C(=O)Cc2ccc3[nH]c(=O)cc(C)c3c2)CC1)NC(=O)c1ccc(-c2ccc(C)cc2C)cn1 (centres unmarked) [CDD-724],12800,34300,4035 fold,8.5,5.7,"2,246 fold and > 2,000 fold",–,–,–,–,–,–,–,–
Cc1cc(=O)[nH]c2ccc(CC(=O)N3CCC(CCNC(=O)c4ccccn4)CC3)cc12 [CDD-767],6800,75200,"5,449 fold",13.8,35.4,192 fold,–,–,–,–,–,–,–,–
Cc1cc(=O)[nH]c2ccc(CC(=O)N3CCN(CCNC(=O)c4ccccn4)CC3)cc12 [CDD-778],–,–,–,–,–,13.8 fold,71800,1300,5200,–,–,–,–,–
Cc1cc(=O)[nH]c2ccc(CC(=O)N3CCC(CCNC(=O)c4ccccc4)CC3)cc12 [CDD-779],10400,–,–,47.9,148,70 fold,–,–,–,–,–,–,–,–
CNC(=O)C(CC1CCN(C(=O)Cc2ccc3[nH]c(=O)cc(C)c3c2)CC1)NC(=O)c1ccccn1 (centres unmarked) [CDD-784],–,–,"2,078 fold",–,–,960 fold,19400,15.7,20.2,32600,–,–,–,–
Cc1ccc(-c2ccc(C(=O)NCCC3CCN(C(=O)Cc4ccc5[nH]c(=O)cc(C)c5c4)CC3)nc2)c(C)c1 [CDD-813],67800,8690,312 fold,27.8,33.7,2012 fold,–,–,–,–,–,–,–,–
Cc1cc(=O)[nH]c2ccc(CC(=O)N3CCC(CCNC(=O)c4nccc5ccccc45)CC3)cc12 [CDD-853],–,–,–,341,638,–,–,–,–,–,–,–,–,–
Cc1cc(=O)[nH]c2ccc(CC(=O)N3CCC(CCNC(=O)c4cc5ccccc5cn4)CC3)cc12 [CDD-854],–,–,–,–,–,–,–,119,116,–,–,–,–,–
Cc1cc(=O)[nH]c2ccc(CC(=O)N3CCC(CCNC(=O)c4ccc5ccccc5n4)CC3)cc12 [CDD-855],–,–,–,–,–,–,–,122,81.3,–,–,–,–,–
Cc1ccc(-c2ccc(C(=O)NC(C)CC3CCN(C(=O)Cc4ccc5[nH]c(=O)cc(C)c5c4)CC3)nc2)c(C)c1 (centres unmarked) [CDD-906],–,–,381 fold,–,–,756 fold,23400,52.4,31,20000,6.5,–,–,–
CNC(=O)[C@@H](CC1CCN(C(=O)Cc2ccc3[nH]c(=O)cc(C)c3c2)CC1)NC(=O)c1ccc(-c2ccc(Cl)cc2)cn1 [CDD-981],33800,19900,"1,553 fold",12.8,5.1,"6,633 fold",–,–,–,–,–,58,–,–
CNC(=O)[C@@H](CC1CCN(C(=O)Cc2ccc3[nH]c(=O)cc(C)c3c2)CC1)NC(=O)c1ccc(-c2ccc(Cl)c(F)c2)cn1 [CDD-982],22600,14000,"1,423 fold",9.8,4.7,"4,799 fold",–,–,–,–,–,100,–,–
CNC(=O)C(CC1CCN(C(=O)Cc2ccc3[nH]c(=O)ccc3c2)CC1)NC(=O)c1ccc(-c2ccccc2)cn1 (centres unmarked) [CDD-986],–,–,"2,352 fold",–,–,"3,875 fold",20900,–,–,16700,–,–,143,1.6
